Experimental data taken from patent US9493487B2, “3-(1H-imidazo[4,5-C]pyridin-2-YL)-1H-pyrazolo[3,4-B]pyridine and therapeutic uses thereof” (Samumed, LLC, priority 2014, dated 2016).

Experiments:
[1] = system: Wnt activity (Sp5-Luc reporter, SW480 colon carcinoma cells); experiment: Sp5-Luc Wnt reporter gene assay in SW480 colon carcinoma cells; assay type: cell-based; conditions: Homo sapiens; SW480 cells stably expressing Sp5-Luc reporter; 42 h incubation; BrightGlo luminescence normalized to DMSO
In short: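 IC50 values come from variable-slope four-parameter fits of luciferase signal normalized to DMSO wells. Stable Sp5-Luc reporter SW480 colon carcinoma cells were exposed to compounds in a 3-fold dilution series (source plates from 10 mM stock) for forty-two hours at 37 °C.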

[2] = system: primary human fibroblasts derived from IPF patients (LL29 cells); experiment: Inhibition of TGF-β1-induced fibrosis (αSMA staining) in primary human fibroblasts from IPF patients; assay type: cell-based; conditions: Fibroblast, 96 h, TGF-β1 20 ng/mL, 4 days, 11-point dose-response 10 μM to 1.87 nM
From the text: The above synthesized compounds were screened using primary human fibroblasts (derived from IPF patients) treated with TGF-β1 to determine their ability to inhibit the fibrotic process.
Primary human fibroblasts derived from IPF patients (LL29 cells) [^1Xiaoqiu Liu, et. al., “Fibrotic Lung Fibroblasts Show Blunted Inhibition by cAMP Due to Deficient cAMP Response Element-Binding Protein Phosphorylation”, Journal of Pharmacology and Experimental Therapeutics (2005), 315(2), 678-687; ^2Watts, K. L., et. al., “RhoA signaling modulates cyclin D1 expression in human lung fibroblasts; implications for idiopathic pulmonary fibrosis”, Respiratory Research (2006), 7(1), 88] were obtained from American Type Culture Collection (ATCC) and expanded in F12 medium supplemented with 15% Fetal Bovine Serum and Penicillin/Streptomycin.
Each compound was dissolved in DMSO as a 10 mM stock and used to prepare compound source plates. Serial dilution (1:2, 11-point dose-response curves from 10 μM to 1.87 nM) and compound transfer was performed using the ECHO 550 (Labcyte, Sunnyvale, Calif.) into 384-well clear bottom assay plates (Greiner Bio-One) with appropriate DMSO backfill for a final DMSO concentration of 0.1%. LL29 cells were plated at 1,500 cells/well in 80 μl/well F12 medium supplemented with 1% Fetal Bovine Serum. One hour after addition of the cells, TGF-β1 (Peprotech; 20 ng/mL) was added to the plates to induce fibrosis (ref. 1 and 2 above). Wells treated with TGF-β1 and containing DMSO were used as controls. Cells were incubated at 37° C. and 5% CO2 for 4 days. Following incubation for 4 days, SYTOX green nucleic acid stain (Life Technologies [Thermo Fisher Scientific]) was added to the wells at a final concentration of 1 uM and incubated at room temperature for 30 min. Cells were then fixed using 4% formaldehyde (Electron Microscopy Sciences), washed 3 times with PBS followed by blocking and permeabilization using 3% Bovine Serum Albumin (BSA; Sigma) and 0.3% Triton X-100 (Sigma) in PBS. Cells were then stained with antibody specific to α-smooth muscle actin (αSMA; Abcam) (ref 1 and 2 above) in 3% Bovine Serum Albumin (BSA; Sigma) and 0.3% Triton X-100 (Sigma) in PBS, and incubated overnight at 4° C. Cells were then washed 3 times with PBS, followed by incubation with Alexa Flor-647 conjugated secondary antibody (Life Technologies [Thermo Fisher Scientific]) and DAPI at room temperature for 1 hour. Cells were then washed 3 times with PBS and plates were sealed for imaging. αSMA staining was imaged by excitation at 630 nm and emission at 665 nm and quantified using the Compartmental Analysis program on the CellInsight CX5 (Thermo Scientific). Dead or apoptotic cells were excluded from analysis based on positive SYTOX green staining. % of total cells positive for αSMA were counted in each well and normalized to the average of 11 wells treated with TGF-β1 on the same plate using Dotmatics' Studies Software. The normalized averages (fold change over untreated) of 3 replicate wells for each compound concentration were used to create dose-responses curves and EC50 values were calculated using non-linear regression curve fit in the Dotmatics' Studies Software. The EC50 values are reported.

## CC(C)C(=O)Nc1cncc(-c2cnc3[nH]nc(-c4nc5c(-c6ccccc6F)nccc5[nH]4)c3c2)c1 [Compound 61, N-(5-(3-(4-(2-Fluorophenyl)-1H-imidazo[4,5-c]pyridin-2-yl)-1H-pyrazolo[3,4-b]pyridin-5-yl)pyridin-3-yl)isobutyramide]
[1]
  IC50: 28 nM
[2]
  EC50: > 10000 nM

## Cc1cn(-c2nccc3[nH]c(-c4n[nH]c5ncc(-c6cncc(CN7CCCC7)c6)cc45)nc23)cn1 [Compound 196, 3-(4-(4-Methyl-1H-imidazol-1-yl)-1H-imidazo[4,5-c]pyridin-2-yl)-5-(5-(pyrrolidin-1-ylmethyl)pyridin-3-yl)-1H-pyrazolo[3,4-b]pyridine]
[1]
  IC50: 579 nM
[2]
  EC50: ≥ 9990 nM

## FC1(F)CCN(Cc2cncc(-c3cnc4[nH]nc(-c5nc6c(N7CCCCC7)nccc6[nH]5)c4c3)c2)C1 [Compound 181, 5-(5-((3,3-Difluoropyrrolidin-1-yl)methyl)pyridin-3-yl)-3-(4-(piperidin-1-yl)-1H-imidazo[4,5-c]pyridin-2-yl)-1H-pyrazolo[3,4-b]pyridine]
[1]
  IC50: 243 nM
[2]
  EC50: 1130 nM

## Fc1cccc(-c2nccc3[nH]c(-c4n[nH]c5ncc(-c6cnccn6)cc45)nc23)c1 [Compound 902, 3-(4-(3-Fluorophenyl)-1H-imidazo[4,5-c]pyridin-2-yl)-5-(pyrazin-2-yl)-1H-pyrazolo[3,4-b]pyridine]
[1]
  IC50: 705 nM
[2]
  EC50: 9 nM

## CN(C)c1cncc(-c2cnc3[nH]nc(-c4nc5c(-c6cccs6)nccc5[nH]4)c3c2)c1 [Compound 293, N,N-Dimethyl-5-(3-(4-(thiophen-2-yl)-1H-imidazo[4,5-c]pyridin-2-yl)-1H-pyrazolo[3,4-b]pyridin-5-yl)pyridin-3-amine]
[1]
  IC50: 37.1 nM
[2]
  EC50: 9 nM

## Fc1cccc(-c2nccc3[nH]c(-c4n[nH]c5ncc(-c6cn[nH]c6)cc45)nc23)c1 [Compound 887, 3-(4-(3-Fluorophenyl)-1H-imidazo[4,5-c]pyridin-2-yl)-5-(1H-pyrazol-4-yl)-1H-pyrazolo[3,4-b]pyridine]
[1]
  IC50: 6 nM
[2]
  EC50: 10 nM

## Cc1ccc(-c2nccc3[nH]c(-c4n[nH]c5ncc(-c6cncc(NC(=O)C(C)C)c6)cc45)nc23)s1 [Compound 347, N-(5-(3-(4-(5-Methylthiophen-2-yl)-1H-imidazo[4,5-c]pyridin-2-yl)-1H-pyrazolo[3,4-b]pyridin-5-yl)pyridin-3-yl)isobutyramide]
[1]
  IC50: 20.8 nM
[2]
  EC50: 633 nM

## O=C(Nc1cncc(-c2cnc3[nH]nc(-c4nc5c(-c6ccccn6)nccc5[nH]4)c3c2)c1)c1ccccc1 [Compound 141, N-(5-(3-(4-(Pyridin-2-yl)-1H-imidazo[4,5-c]pyridin-2-yl)-1H-pyrazolo[3,4-b]pyridin-5-yl)pyridin-3-yl)benzamide]
[1]
  IC50: > 10000 nM
[2]
  EC50: ≥ 9990 nM

## CCCC(=O)Nc1cncc(-c2cnc3[nH]nc(-c4nc5c(-c6ccncc6)nccc5[nH]4)c3c2)c1 [Compound 121, N-(5-(3-(4-(Pyridin-4-yl)-1H-imidazo[4,5-c]pyridin-2-yl)-1H-pyrazolo[3,4-b]pyridin-5-yl)pyridin-3-yl)butyramide]
[1]
  IC50: > 10000 nM
[2]
  EC50: ≥ 9990 nM

## CN(C)Cc1cncc(-c2cnc3[nH]nc(-c4nc5c(N6CCCCC6)nccc5[nH]4)c3c2)c1 [Compound 169, N,N-Dimethyl-1-(5-(3-(4-(piperidin-1-yl)-1H-imidazo[4,5-c]pyridin-2-yl)-1H-pyrazolo[3,4-b]pyridin-5-yl)pyridin-3-yl)methanamine]
[1]
  IC50: 2270 nM
[2]
  EC50: 888 nM

## CC(=O)c1ccc(-c2nccc3[nH]c(-c4n[nH]c5ncc(-c6cncc(NC(=O)C7CCCCC7)c6)cc45)nc23)s1 [Compound 386, N-(5-(3-(4-(5-Acetylthiophen-2-yl)-1H-imidazo[4,5-c]pyridin-2-yl)-1H-pyrazolo[3,4-b]pyridin-5-yl)pyridin-3-yl)cyclohexanecarboxamide]
[1]
  IC50: 188 nM
[2]
  EC50: 53 nM

## CC(C)(C)C(=O)Nc1cncc(-c2cnc3[nH]nc(-c4nc5c(-c6ccc(F)s6)nccc5[nH]4)c3c2)c1 [Compound 320, N-(5-(3-(4-(5-Fluorothiophen-2-yl)-1H-imidazo[4,5-c]pyridin-2-yl)-1H-pyrazolo[3,4-b]pyridin-5-yl)pyridin-3-yl)pivalamide]
[1]
  IC50: 9.3 nM
[2]
  EC50: 9 nM

## CN1CCN(c2nccc3[nH]c(-c4n[nH]c5ncc(-c6cncc(N)c6)cc45)nc23)CC1 [Compound 211, 5-(3-(4-(4-Methylpiperazin-1-yl)-1H-imidazo[4,5-c]pyridin-2-yl)-1H-pyrazolo[3,4-b]pyridin-5-yl)pyridin-3-amine]
[1]
  IC50: 334 nM
[2]
  EC50: ≥ 9990 nM

## Cc1ccncc1-c1cnc2[nH]nc(-c3nc4c(-c5ccsc5)nccc4[nH]3)c2c1 [Compound 239, 5-(4-Methylpyridin-3-yl)-3-(4-(thiophen-3-yl)-1H-imidazo[4,5-c]pyridin-2-yl)-1H-pyrazolo[3,4-b]pyridine]
[1]
  IC50: 18 nM
[2]
  EC50: 24 nM

## O=C(CC1CCNCC1)Nc1cncc(-c2cnc3[nH]nc(-c4nc5c(-c6cccc(F)c6)nccc5[nH]4)c3c2)c1 [Compound 893, N-(5-(3-(4-(3-Fluorophenyl)-1H-imidazo[4,5-c]pyridin-2-yl)-1H-pyrazolo[3,4-b]pyridin-5-yl)pyridin-3-yl)-2-(piperidin-4-yl)acetamide]
[1]
  IC50: 868 nM
[2]
  EC50: 308 nM

## CC(C)(C)CC(=O)Nc1cncc(-c2cnc3[nH]nc(-c4nc5c(-c6ccccc6F)nccc5[nH]4)c3c2)c1 [Compound 68, N-(5-(3-(4-(2-Fluorophenyl)-1H-imidazo[4,5-c]pyridin-2-yl)-1H-pyrazolo[3,4-b]pyridin-5-yl)pyridin-3-yl)-3,3-dimethylbutanamide]
[1]
  IC50: 95.7 nM
[2]
  EC50: 930 nM

## CCC(=O)Nc1cncc(-c2cnc3[nH]nc(-c4nc5c(-c6cccs6)nccc5[nH]4)c3c2)c1 [Compound 287, N-(5-(3-(4-(Thiophen-2-yl)-1H-imidazo[4,5-c]pyridin-2-yl)-1H-pyrazolo[3,4-b]pyridin-5-yl)pyridin-3-yl)propionamide]
[1]
  IC50: 22.9 nM
[2]
  EC50: 578 nM

## c1cc2[nH]c(-c3n[nH]c4ncc(-c5cncc(CNCC6CCCC6)c5)cc34)nc2c(-c2ccoc2)n1 [Compound 284, 1-Cyclopentyl-N-((5-(3-(4-(furan-3-yl)-1H-imidazo[4,5-c]pyridin-2-yl)-1H-pyrazolo[3,4-b]pyridin-5-yl)pyridin-3-yl)methyl)methanamine]
[1]
  IC50: 875 nM
[2]
  EC50: 1180 nM

## CC(C)C(=O)Nc1cncc(-c2cnc3[nH]nc(-c4nc5c(-c6cccnc6)nccc5[nH]4)c3c2)c1 [Compound 87, N-(5-(3-(4-(Pyridin-3-yl)-1H-imidazo[4,5-c]pyridin-2-yl)-1H-pyrazolo[3,4-b]pyridin-5-yl)pyridin-3-yl)isobutyramide]
[1]
  IC50: > 10000 nM
[2]
  EC50: 9 nM

## CS(=O)(=O)NCc1cc(F)cc(-c2nccc3[nH]c(-c4n[nH]c5ncc(-c6cncc(NC(=O)c7ccccc7)c6)cc45)nc23)c1 [Compound 401, N-(5-(3-(4-(3-Fluoro-5-(methylsulfonamidomethyl)phenyl)-1H-imidazo[4,5-c]pyridin-2-yl)-1H-pyrazolo[3,4-b]pyridin-5-yl)pyridin-3-yl)benzamide]
[1]
  IC50: > 10000 nM
[2]
  EC50: ≥ 9990 nM

## CC(C)(C)C(=O)Nc1cncc(-c2cnc3[nH]nc(-c4nc5c(-c6ccc(F)cc6)nccc5[nH]4)c3c2)c1 [Compound 34, N-(5-(3-(4-(4-Fluorophenyl)-1H-imidazo[4,5-c]pyridin-2-yl)-1H-pyrazolo[3,4-b]pyridin-5-yl)pyridin-3-yl)pivalamide]
[1]
  IC50: 152 nM
[2]
  EC50: 3060 nM
